Values of other authors, collected in patent US20170049679A1, “ORAL AND DENTAL HYGIENE AND CLEANING AGENTS FOR REDUCING TOOTH DISCOLORATION” (Henkel AG & Co. KGaA, priority 2014, published 2017).
Read-outs that look alike come from different tables or passages of the source.

In the case of [Cl-].[Cl-].[Zn+2] [Zinc chloride], the Solubility (25° C.) is listed as 4320 g/L.
In the case of Zinc acetylacetonate, the Solubility (20° C.) is given as 4 g/L.
In the case of Zinc hydroxycarbonate, the “Solubility (in words)” value (20° C.) is given as “Nearly insoluble”.
